This is an account of results in patent US20060148858A1, “1, 2-Azole derivatives with hypoglycemic and hypolipidemic activity” (priority 2002, published 2006).

One data set deals with T1, PPARδ-RXRα heterodimer (Homo sapiens, UniProt Q03181).
T1 construct: expressed in transfected cells; host or cells: COS-1
T1 sequence (Q03181 1-441): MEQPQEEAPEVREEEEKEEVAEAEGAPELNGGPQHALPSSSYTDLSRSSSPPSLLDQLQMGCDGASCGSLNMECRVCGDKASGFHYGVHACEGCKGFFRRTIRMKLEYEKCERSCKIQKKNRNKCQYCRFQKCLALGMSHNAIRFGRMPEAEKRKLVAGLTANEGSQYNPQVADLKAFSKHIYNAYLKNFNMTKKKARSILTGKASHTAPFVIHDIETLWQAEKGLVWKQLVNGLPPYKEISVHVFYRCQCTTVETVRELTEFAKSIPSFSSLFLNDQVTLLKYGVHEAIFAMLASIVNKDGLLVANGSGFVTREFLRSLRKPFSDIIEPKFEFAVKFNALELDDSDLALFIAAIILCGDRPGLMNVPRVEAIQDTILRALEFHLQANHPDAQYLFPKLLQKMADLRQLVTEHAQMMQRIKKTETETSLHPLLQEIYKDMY
T1 sequence (P19793 1-462 partner): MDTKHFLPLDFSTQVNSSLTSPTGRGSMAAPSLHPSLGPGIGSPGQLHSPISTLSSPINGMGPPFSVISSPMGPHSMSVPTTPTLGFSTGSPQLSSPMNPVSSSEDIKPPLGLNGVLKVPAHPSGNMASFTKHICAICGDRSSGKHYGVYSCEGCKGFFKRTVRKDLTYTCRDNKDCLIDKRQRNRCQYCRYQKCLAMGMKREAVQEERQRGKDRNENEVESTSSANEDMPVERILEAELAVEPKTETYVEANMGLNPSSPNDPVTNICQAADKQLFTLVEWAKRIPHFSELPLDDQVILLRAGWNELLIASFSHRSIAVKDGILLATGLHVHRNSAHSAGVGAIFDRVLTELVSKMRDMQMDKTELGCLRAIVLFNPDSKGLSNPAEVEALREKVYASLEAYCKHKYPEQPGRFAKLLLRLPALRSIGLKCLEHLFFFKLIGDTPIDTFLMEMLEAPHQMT
The data set is described as follows: PPARδ-RXRα heterodimer ligand activity, luciferase reporter in COS-1 transformant (Test Example 4). The format is cell-based. The conditions noted are these: COS-1 transformant (hPPARδ, hRXRα, reporter), 36-48 hours, concentration for 50% of the maximum fold induction. Summed up:
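COS-1 cells transiently co-transfected with human PPARδ, human RXRα, PPRE-luciferase reporter and pRL-tk, then exposed to compound 36-48 h at 37 °C in DMEM with 0.1% fatty acid-free BSA. Luciferase read as fold induction over untreated; EC50 at 50% of maximal fold induction.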
In general terms: In a reporter assay the amount or activity of a reporter protein is the signal.

As to `CCCc1nn(-c2ccc(C(F)(F)F)cn2)cc1CCCCOc1cc(CCC(=O)O)n(-c2ccccc2)n1` [Example 58, 3-[1-phenyl-3-(4-{3-propyl-1-[5-(trifluoromethyl)-2-pyridinyl]-1H-pyrazol-4-yl}butoxy)-1H-pyrazol-5-yl]propanoic acid], the melting point (commonly the temperature, or range, at which the solid turns liquid) lay within 123 to 124 °C. Also, the EC50 (commonly the concentration at which the effect is half-maximal) on PPARδ-RXRα heterodimer was 1.9 nM.
With `COc1ccc(CC(=O)O)cc1OCCCc1cn(-c2ccc(C(F)(F)F)cn2)nc1C1CCCCC1` [Example 304, [3-(3-{3-cyclohexyl-1-[5-(trifluoromethyl)-2-pyridinyl]-1H-pyrazol-4-yl}propoxy)-4-methoxyphenyl]acetic acid], the melting point is 117 to 118 °C. Moreover, the EC50 at PPARδ-RXRα heterodimer was determined as 5.7 nM.
Compound `CCc1cccc(CC(=O)O)c1OCCCc1cn(-c2ccc(C(F)(F)F)cn2)nc1C(C)C` [Example 227, [3-ethyl-2-(3-{3-isopropyl-1-[5-(trifluoromethyl)-2-pyridinyl]-1H-pyrazol-4-yl}propoxy)phenyl]acetic acid] showed a melting point of 155 to 156 °C. On PPARδ-RXRα heterodimer, this compound displayed a concentration giving a half-maximal response (EC50) of 54 nM.
As to `COc1cccc(CC(=O)O)c1OCCCc1cn(-c2ccc(Cl)cn2)nc1C(C)C` [Example 311, (2-{3-[1-(5-chloro-2-pyridinyl)-3-isopropyl-1H-pyrazol-4-yl]propoxy}-3-methoxyphenyl)acetic acid], the melting point was 148 to 149 °C. Moreover, the EC50 on PPARδ-RXRα heterodimer was 280 nM.
For `CCOc1ccc(CC(=O)O)cc1OCCCc1cn(-c2ccc(C(F)(F)F)cn2)nc1C1CCCCC1` [Example 201, [3-(3-{3-cyclohexyl-1-[5-(trifluoromethyl)-2-pyridyl]-1H-pyrazol-4-yl}propoxy)-4-ethoxyphenyl]acetic acid], the melting point was in the range of 134 to 135 °C. The EC50 at PPARδ-RXRα heterodimer stood at 1.2 nM.
